The values below come from ChEMBL document CHEMBL3580535, “The biological characteristics of a novel camptothecin-artesunate conjugate” (Bioorg Med Chem Lett, 2015).

The term half-life denotes the time in which the quantity being followed falls by half. Low readings indicate rapid decline, high ones slow decline. By inhibition in vivo is commonly meant the share of the control response that was lost under treatment.

Data set [1] in a line: Half life in PBS solution at pH 7.4. The class given is ADME.
A short description of data set [2]: Half life in mouse plasma. The class given is ADME, cell-free.
In data set [3] the test system is MCF7. Nature of the data set: Cytotoxicity against human MCF7 cells assessed as inhibition of cell viability after 48 hrs by MTT assay. Format: functional, cell-based.
The test system of data set [4] is SMMC-7721. Briefly: Cytotoxicity against human SMMC7721 cells assessed as inhibition of cell viability after 48 hrs by MTT assay. Format: functional, cell-based.
Data set [5] has as its system Mus musculus. Nature of the data set: Toxicity in mouse assessed as body weight loss at 1.72 mmol, ip. Format: organism-based. As to conditions: in vivo.
Data set [6] concerns Mus musculus. Briefly: Toxicity in mouse assessed as animal death at 0.43 to 1.72 mmol, ip. The class given is organism-based. Particulars: in vivo.
The test system of data set [7] is Mus musculus. Nature of the data set: Toxicity in BALB/c nude mouse assessed as body weight at 0.023 mmol/kg, ip administered every 2 days for 3 times measured on day 6 (reference value: 17.5 to 17.9 gms). Format: organism-based. As to conditions: in vivo.
In data set [8] the test system is Mus musculus. Briefly: Toxicity in BALB/c nude mouse assessed as animal death at 0.023 mmol/kg, ip administered every 2 days for 3 times measured on day 6. Format: organism-based. Particulars: in vivo, 48 h.
Data set [9] has as its system MCF7. Briefly: Antitumor activity against human MCF7 cells xenografted in BALB/c nude mouse assessed as decrease in tumor volume at 0.023 mmol/kg, ip administered every 2 days for 3 times measured after day 6. The class given is functional.
Data set [10] has as its target Serotransferrin (Homo sapiens) (UniProt P02787). Nature of the data set: Binding affinity to transferrin (unknown origin) assessed as Stem-Volmer quenching constant at 310K by fluorescence spectroscopy.
The target is the same in data set [11]. Briefly: Binding affinity to transferrin (unknown origin) assessed as Stem-Volmer quenching constant at 298K by fluorescence spectroscopy.
Data set [12] has as its target T1, Albumin (Bos taurus, UniProt P02769). Briefly: Binding affinity to bovine serum albumin assessed as Stem-Volmer quenching constant at 310K by fluorescence spectroscopy. Particulars: cattle, isolated protein. Format: ADME.
Data set [13] addresses T1, Albumin. Nature of the data set: Binding affinity to bovine serum albumin assessed as Stem-Volmer quenching constant at 298K by fluorescence spectroscopy. The class given is ADME. Particulars: cattle, isolated protein.
In data set [14] the target is T1, Albumin. Briefly: Binding affinity to bovine serum albumin assessed as quenching constant at 310K by fluorescence spectroscopy. The class given is ADME. Particulars: cattle, isolated protein.
Data set [15] concerns the target T1, Albumin. Briefly: Binding affinity to bovine serum albumin assessed as quenching constant at 298K by fluorescence spectroscopy. The class given is ADME. Particulars: cattle, isolated protein.
The target of data set [16] is Serotransferrin (Homo sapiens) (UniProt P02787). Nature of the data set: Effect on transferrin (unknown origin) conformation at 4 to 20 uM by synchronous fluorescence spectroscopy.
Chain of Serotransferrin (Homo sapiens) (P02787 whole entry): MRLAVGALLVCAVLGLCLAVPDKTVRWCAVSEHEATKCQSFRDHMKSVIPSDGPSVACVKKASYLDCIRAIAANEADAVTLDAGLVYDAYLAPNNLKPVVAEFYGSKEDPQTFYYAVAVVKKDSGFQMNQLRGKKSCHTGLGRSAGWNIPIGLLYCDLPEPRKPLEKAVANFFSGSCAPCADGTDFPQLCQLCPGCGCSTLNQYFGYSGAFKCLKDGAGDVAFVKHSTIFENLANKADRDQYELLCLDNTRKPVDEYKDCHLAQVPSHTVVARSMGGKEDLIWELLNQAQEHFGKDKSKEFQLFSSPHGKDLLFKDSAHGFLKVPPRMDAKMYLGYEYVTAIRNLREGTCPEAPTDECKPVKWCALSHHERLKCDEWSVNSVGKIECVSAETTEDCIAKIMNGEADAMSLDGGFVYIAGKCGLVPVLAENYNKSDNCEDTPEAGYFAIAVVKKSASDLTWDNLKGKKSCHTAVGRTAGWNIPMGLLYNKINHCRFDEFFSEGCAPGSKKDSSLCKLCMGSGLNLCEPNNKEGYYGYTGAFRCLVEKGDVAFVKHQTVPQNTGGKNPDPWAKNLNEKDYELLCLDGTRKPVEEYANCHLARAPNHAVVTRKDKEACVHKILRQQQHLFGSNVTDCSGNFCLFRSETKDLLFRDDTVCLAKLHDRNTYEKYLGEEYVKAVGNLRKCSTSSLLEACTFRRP
The test system of data set [17] is Mus musculus. Nature of the data set: Toxicity in mouse assessed as body weight loss at 0.43 mmol, ip. Format: organism-based. As to conditions: in vivo.
Data set [18] relates to Mus musculus. Briefly: Toxicity in mouse assessed as animal death at 0.43 mmol, ip. Format: organism-based. As to conditions: in vivo.

Calls of active or inactive are those of the source. The rule behind the calls is not given here.

T1 sequence (P02769 whole entry): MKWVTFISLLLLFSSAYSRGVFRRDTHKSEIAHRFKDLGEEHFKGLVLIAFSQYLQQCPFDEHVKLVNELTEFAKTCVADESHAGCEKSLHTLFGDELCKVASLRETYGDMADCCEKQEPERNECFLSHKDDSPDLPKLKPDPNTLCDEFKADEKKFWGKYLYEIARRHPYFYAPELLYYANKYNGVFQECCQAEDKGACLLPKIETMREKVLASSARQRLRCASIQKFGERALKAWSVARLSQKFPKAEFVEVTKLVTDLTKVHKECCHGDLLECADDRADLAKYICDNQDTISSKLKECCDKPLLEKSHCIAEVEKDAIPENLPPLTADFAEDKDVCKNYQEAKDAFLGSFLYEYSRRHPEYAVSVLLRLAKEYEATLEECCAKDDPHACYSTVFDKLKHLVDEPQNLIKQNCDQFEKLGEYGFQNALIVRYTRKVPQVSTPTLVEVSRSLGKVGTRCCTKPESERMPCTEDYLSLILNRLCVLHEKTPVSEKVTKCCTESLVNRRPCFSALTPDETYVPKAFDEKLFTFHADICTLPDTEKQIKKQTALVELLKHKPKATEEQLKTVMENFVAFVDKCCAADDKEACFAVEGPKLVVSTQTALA

Consider `CC[C@@]1(OC(=O)CCC(=O)O[C@@H]2O[C@@H]3O[C@@]4(C)CC[C@H]5[C@H](C)CC[C@@H]([C@H]2C)[C@@]35OO4)C(=O)OCc2c1cc1n(c2=O)Cc2cc3c(CN(C)C)c(O)ccc3nc2-1`, for which the results for the half-life in data set [1] and in [2] were 15 h and 4 h, respectively. Besides, the inhibition result in [3] and in data set [4] was “Dose-dependent effect” each time. The Activity entry in [5] was “Toxic”; in data set [6] it was “Non-toxic”; in [7] it was 15.5 g; in data set [8], “Non-toxic”. Moreover, the inhibition in vivo at 23 µmol/kg in [9] was 50.2%. For the same molecule, the KSV came to 2.22 ×10⁴ L/mol in data set [10], 2.36 ×10⁴ L/mol in data set [11], 1.03 ×10⁴ L/mol in data set [12] and 2.27 ×10⁴ L/mol in [13]. Moreover, the Kq worked out at 1.03 ×10¹² L/mol/s in [14] and 2.27 ×10¹² L/mol/s in data set [15]. Moreover, the outcome in data set [16] was inactive.

For `C[C@H]1[C@H](OC(=O)CCC(=O)O)O[C@@H]2O[C@@]3(C)CC[C@H]4[C@H](C)CC[C@@H]1[C@@]24OO3` [ARTESUNATE], the inhibition entry in [3] and in [4] was “Active” in each case. For the same molecule, the Activity entry is given as “Toxic” in data set [17], 16.1 g in data set [7] and “Non-toxic” in data set [8].

For the molecule `CC[C@@]1(O)C(=O)OCc2c1cc1n(c2=O)Cc2cc3ccccc3nc2-1` [CAMPTOTHECIN], the inhibition result in data set [3] and in [4] was “Active” each time. Also, the Activity result was “Toxic” in data set [17], “Toxic” in data set [18], 11.3 g in data set [7] and “Toxic” in data set [8]. The inhibition in vivo at 23 µmol/kg in data set [9] turned out to be 45.3%. Also, the KSV in data set [10] came out at 2.62 ×10⁴ L/mol; in data set [11], 4.35 ×10⁴ L/mol; in data set [12] it was 3.345 ×10⁴ L/mol; in [13], 3.626 ×10⁴ L/mol. Moreover, the Kq in [14] is on record as 3.345 ×10¹² L/mol/s; in data set [15] it was 3.626 ×10¹² L/mol/s. For the same molecule, the result in data set [16] was inactive.

On to `CC[C@@]1(O)C(=O)OCc2c1cc1n(c2=O)Cc2cc3c(CN(C)C)c(O)ccc3nc2-1` [TOPOTECAN], for which the Activity is 13.6 g in data set [7] and “Toxic” in data set [8]. The inhibition in vivo at 23 µmol/kg in data set [9] was 70.2%.
